According to ChEMBL document CHEMBL1159080, “Discovery of cyclicsulfonamide derivatives as 11 beta-hydroxysteroid dehydrogenase 1 inhibitors” (Bioorg Med Chem Lett, 2010):

Assays:
[1] = target: 11-beta-hydroxysteroid dehydrogenase 1 (Homo sapiens, UniProt P28845); assay: Inhibition of 11beta-HSD1 in human microsomes by HTRF cortisol assay; parameters: species or system Microsome
[2] = target: 11-beta-hydroxysteroid dehydrogenase 1 (Mus musculus, UniProt P50172); assay: Inhibition of 11beta-HSD1 in mouse C2C12 cells by HTRF cortisol assay; assay type: cell-based
[3] = target: T1, 11-beta-hydroxysteroid dehydrogenase type 2 (Homo sapiens) (UniProt P80365); assay: Inhibition of human 11beta-HSD2 overexpressed in HEK293 cells at 20 uM by HTRF cortisol assay; assay type: cell-based
T1 sequence (whole entry): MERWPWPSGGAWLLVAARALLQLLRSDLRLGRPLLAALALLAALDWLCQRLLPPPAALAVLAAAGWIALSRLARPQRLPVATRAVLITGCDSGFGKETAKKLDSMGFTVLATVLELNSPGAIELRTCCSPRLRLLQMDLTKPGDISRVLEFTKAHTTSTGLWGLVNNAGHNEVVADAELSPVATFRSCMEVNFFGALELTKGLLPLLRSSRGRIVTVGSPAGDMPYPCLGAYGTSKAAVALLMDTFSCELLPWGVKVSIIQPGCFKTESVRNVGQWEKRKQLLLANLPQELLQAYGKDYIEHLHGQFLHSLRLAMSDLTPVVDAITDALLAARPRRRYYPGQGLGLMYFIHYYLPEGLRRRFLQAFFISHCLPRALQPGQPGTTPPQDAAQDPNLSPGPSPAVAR

[4] = Half life in human liver microsomes; assay type: ADME, Microsome
[5] = target: Voltage-gated inwardly rectifying potassium channel KCNH2 (Homo sapiens, UniProt Q12809); assay: Inhibition of human ERG
[6] = Cmax in rat; assay type: ADME, organism-based; conditions: in vivo
[7] = Half life in rat; assay type: ADME, organism-based; conditions: in vivo
Rattus norvegicus = species on record: Rattus norvegicus; assay: Clearance in rat; assay type: ADME, organism-based; conditions: in vivo
[8] = Oral bioavailability in rat; assay type: ADME, organism-based; conditions: in vivo

Chain of 11-beta-hydroxysteroid dehydrogenase 1 (Homo sapiens, UniProt P28845) (P28845 whole entry): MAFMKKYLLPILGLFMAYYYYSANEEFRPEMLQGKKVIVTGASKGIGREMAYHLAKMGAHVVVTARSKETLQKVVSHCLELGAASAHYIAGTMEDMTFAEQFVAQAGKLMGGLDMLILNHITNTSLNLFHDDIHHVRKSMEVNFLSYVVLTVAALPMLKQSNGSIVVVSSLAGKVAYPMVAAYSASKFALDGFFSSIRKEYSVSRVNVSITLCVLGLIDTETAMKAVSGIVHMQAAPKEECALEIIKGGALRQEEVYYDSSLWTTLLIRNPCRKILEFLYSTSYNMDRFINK
Chain of 11-beta-hydroxysteroid dehydrogenase 1 (Mus musculus, UniProt P50172) (P50172 whole entry): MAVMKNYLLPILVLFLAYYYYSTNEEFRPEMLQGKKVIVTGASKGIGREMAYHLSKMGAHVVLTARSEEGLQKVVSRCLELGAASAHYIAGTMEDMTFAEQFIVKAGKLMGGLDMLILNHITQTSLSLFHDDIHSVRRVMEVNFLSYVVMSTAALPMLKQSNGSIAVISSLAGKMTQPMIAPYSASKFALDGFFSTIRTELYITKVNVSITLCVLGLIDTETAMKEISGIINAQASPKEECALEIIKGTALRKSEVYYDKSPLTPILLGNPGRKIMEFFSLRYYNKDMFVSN
Chain of Voltage-gated inwardly rectifying potassium channel KCNH2 (Q12809 whole entry): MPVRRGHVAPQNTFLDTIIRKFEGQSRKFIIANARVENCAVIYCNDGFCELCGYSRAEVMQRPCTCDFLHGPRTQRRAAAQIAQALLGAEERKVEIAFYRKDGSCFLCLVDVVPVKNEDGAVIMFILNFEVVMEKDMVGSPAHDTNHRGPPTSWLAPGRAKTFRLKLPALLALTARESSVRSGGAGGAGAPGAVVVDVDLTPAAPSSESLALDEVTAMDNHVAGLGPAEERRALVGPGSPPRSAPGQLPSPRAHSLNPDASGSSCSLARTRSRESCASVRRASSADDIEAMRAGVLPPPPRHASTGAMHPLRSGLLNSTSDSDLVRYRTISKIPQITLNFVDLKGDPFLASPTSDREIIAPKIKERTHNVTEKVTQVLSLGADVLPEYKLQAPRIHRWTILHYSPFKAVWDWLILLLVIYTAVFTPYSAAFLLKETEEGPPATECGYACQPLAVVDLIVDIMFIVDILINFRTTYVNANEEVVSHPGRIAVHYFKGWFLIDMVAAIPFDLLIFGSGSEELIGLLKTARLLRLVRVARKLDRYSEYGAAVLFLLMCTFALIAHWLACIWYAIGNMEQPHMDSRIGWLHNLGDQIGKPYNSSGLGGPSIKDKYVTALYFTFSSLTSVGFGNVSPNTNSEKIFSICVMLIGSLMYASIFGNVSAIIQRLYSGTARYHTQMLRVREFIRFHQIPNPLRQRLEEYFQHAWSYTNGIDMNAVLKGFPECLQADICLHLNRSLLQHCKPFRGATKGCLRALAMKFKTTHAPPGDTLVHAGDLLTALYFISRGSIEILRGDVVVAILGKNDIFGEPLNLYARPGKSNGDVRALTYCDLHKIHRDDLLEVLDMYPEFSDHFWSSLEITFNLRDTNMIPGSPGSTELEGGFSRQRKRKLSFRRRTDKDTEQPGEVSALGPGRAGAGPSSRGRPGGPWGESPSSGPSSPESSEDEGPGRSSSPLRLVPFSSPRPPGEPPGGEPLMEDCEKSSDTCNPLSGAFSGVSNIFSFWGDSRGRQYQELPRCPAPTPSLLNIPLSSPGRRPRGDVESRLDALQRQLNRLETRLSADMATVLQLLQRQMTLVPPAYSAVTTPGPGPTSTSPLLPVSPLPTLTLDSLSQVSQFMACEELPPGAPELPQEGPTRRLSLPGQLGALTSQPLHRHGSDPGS

| SMILES | IC50 [1] [nM] | IC50 [2] [nM] | also measured |
| --- | --- | --- | --- |
| O=C(CN1C(C(=O)c2ccccc2)=C(O)c2ccccc2S1(=O)=O)c1ccc([N+](=O)[O-])cc1 | 30 |  |  |
| O=C(CN1C(C(=O)c2ccccc2)=C(O)c2ccccc2S1(=O)=O)c1ccc(-c2ccccc2)cc1 | 28 |  |  |
| N#Cc1ccc(C(=O)CN2C(C(=O)c3ccccc3)=C(O)c3ccccc3S2(=O)=O)cc1 | 40 | 9000 |  |
| COC(=O)c1ccc(C(=O)CN2C(C(=O)c3ccccc3)=C(O)c3ccccc3S2(=O)=O)cc1 | 31 |  |  |
| O=C(CN1C(C(=O)c2ccccc2)=C(O)c2ccccc2S1(=O)=O)c1ccccc1 |  | 7800 | inhibition [3]: 6%; half-life [4]: 1.25 h; IC50 [5]: > 100000 nM; Cmax [6]: 1100 ng/mL; half-life [7]: 5.5 h; CL (Rattus norvegicus): 6.7 mL/min/kg; bioavailability [8]: 48.7% |
| O=C(O)c1ccc(C(=O)CN2C(C(=O)c3ccccc3)=C(O)c3ccccc3S2(=O)=O)cc1 | 720 |  |  |
